Measurements reported in patent US20240238299A1, “USE OF PYRROLOPYRIMIDINE COMPOUND” (GUANGZHOU JOYO PHARMATECH CO., LTD, priority 2021, published 2024).

Legend:
Assay type in all cases: cell-based
rat primary astrocytes = assay: Cell viability (CCK-8) in NMO-IgG induced astrocyte injury model
[1] = system: mouse CCL5 secretion by BV-2 cell line; assay: CCL5 secretion by LPS/IFN-γ-activated BV-2 cells (ELISA)
Procedure: Step 1: BV-2 cells in the exponential growth phase were collected, and viable cells were counted using a Vi-Cell XR cell counter. The cell suspension was adjusted to an appropriate concentration with the culture medium. 160 μL of cell suspension was added to each well of a 96-well cell culture plate, resulting in a final cell concentration of 12,000 cells per well. The culture plate was incubated for 24 hours in a 37° C., 5% CO2 incubator.
Step 2: A 10 mM DMSO compound stock solution was diluted at a ratio of 1:4 using DMSO to prepare a series of 1000× test compound solutions. These 1000× test compound solutions were further diluted at a ratio of 1:100 using cell culture medium to prepare a series of 10× test compound solutions. Finally, the 96-well plate that had been plated with cells the day before was taken out. According to the experimental well plate loading design, 20 μL of the corresponding 10× solution was added to each well, with three duplicate wells for each drug concentration. The final concentrations of the test compounds used in the experiment (i.e., 1× solutions) have a range of 10, 2.5, 0.625, 0.156, 0.0391, 0.0098, and 0.0024 μM. The final DMSO concentration in each well was 0.1%.
After the compound was added, the 96-well plate was incubated for half an hour in the 37° C., 5% CO2 incubator.
After the pre-incubation was completed, 20 μL of culture medium containing 100 ng/mL LPS and 100 ng/mL IFN-γ (final concentrations of 10 ng/mL LPS and 10 ng/mL IFN-7) was added to each well to induce the activation of BV-2 cells. The culture plate was then incubated for 24 hours in the 37° C., 5% CO2 incubator. […]
Step 5 (NO and CCL5 detection): The CCL5 levels in the supernatant were detected using an ELISA kit (Mouse CCL5/RANTES DuoSet ELISA; R&D; DY478-05), following the instructions provided with the kit. The nitric oxide (NO) levels in the supernatant were detected using the Griess Reagent System (Promega; G2930), following the instructions provided with the kit.
Step 1: Firstly, the optical density values obtained from ELISA and Griess tests were used to plot a standard curve and calculate the absolute concentrations of each sample. The absolute concentration was then calibrated using the CTG fluorescence value corresponding to each sample to obtain the calibrated concentration. The formula for calculating the calibrated concentration was: calibrated concentration=absolute concentration/CTG fluorescence value of the same sample.
Step 2: Based on the calibrated concentration of each sample, the relative percentage of CCL5 or NO secretion (i.e., CCL5 production (%) or NO production (%)) at each test concentration relative to the blank (DMSO) group was calculated. […]

[2] = system: IL-6-induced pSTAT1 in hPBMC; assay: IL-6-induced pSTAT1 in hPBMC (flow cytometry, CD4 positive cells); conditions: Homo sapiens, 10 ng/mL IL-6, CD4 positive cells
Procedure: • 1) Preparation of culture medium: 1640 medium+10% fetal bovine serum+1% penicillin/streptomycin+1% non-essential amino acids (all percentages were v/v) • 2) Cells were thawed in a 37° C. water bath and then centrifuged. The cell concentration was adjusted to 5×10^5 cells/mL using the prepared culture medium. • 3) Cell suspension was seeded into a 96-well round-bottom plate at 200 μL/well and incubated at 37° C. for 90 minutes. • 4) Drugs were added, followed by a 37° C. incubation for 30 minutes. • 5) Cells were then stimulated by adding 10 ng/mL of IL-6 or 4 ng/mL of IL-2, followed by a 37° C. incubation for 15 minutes.
• 1) After completing the stimulation, cells were centrifuged and washed once with staining buffer (DPBS+2% bovine serum albumin). Antibodies were then added for a 30-minute staining process at 4° C. […]
• 1) Response %=[(MFI value of drug-treated well−mean MFI value of control well)/(mean MFI value of DMSO well−mean MFI value of control well)]*100% was calculated. • 2) The calculated Response % values were input into GraphPad Prism 8 software. […]

[3] = Rattus norvegicus, Astrocyte, 24 h, read-out: Cell viability percentage, Mean

IC50 ([1]; Mus musculus, BV-2, 24 h co-incubation): 0.863 µM
IC50 [2]: 0.0731 µM
SMILES: CN(c1ncnc2[nH]ccc12)[C@@H]1CCc2cc(C#N)nn2C1 [Compound I]
inhibitory effect on cell viability (rat primary astrocytes; 24 h co-incubation, highest test concentration 20 μM): no inhibitory effect on cell viability
viability at 0.027 µM (rat primary astrocytes; [3]): 112%
viability at 0.247 µM (rat primary astrocytes; [3]): 105%
viability at 2.222 µM (rat primary astrocytes; [3]): 99.7%
viability at 20 µM (rat primary astrocytes; [3]): 99.4%
Maximum inhibition rate on CCL5 secretion by BV-2 ([1]; 24 h co-incubation, up to 10 μM): 80.29%
